Data as given in patent US6194434A, “Cycloalkylaminomethylpyrrolidine derivatives” (Daiichi Pharmaceutical Co., Ltd., priority 1996, dated 2001).
In brackets after ≈: the same amount, converted by molar mass. Where two headings read alike, the source gives them in different places.

What was measured:
Assay in all cases: Antimicrobial activity (MIC), standard method of the Japan Chemotherapeutic Society
Type in all cases: cell-based
Pr. vulgaris, 08601 = system: Pr. vulgaris, 08601
Text: (§1) The antimicrobial activity of the compounds obtained in Examples 1 to 3 was examined in accordance with the standard method specified by the Japan Chemotherapeutic Society.

S. aureus, 209P = system: S. aureus, 209P
Text: as §1

Str. pyrogenes, G-36 = system: Str. pyrogenes, G-36
Text: as §1

[1] = system: Ps. maltophilia, IID-1275
Text: as §1

Ps. aeruginosa, 32104 = system: Ps. aeruginosa, 32104
Text: as §1

S. epidermidis, 56500 = system: S. epidermidis, 56500
Text: as §1

Ps. aeruginosa, 32121 = system: Ps. aeruginosa, 32121
Text: as §1

E. coli, NIHJ = system: E. coli, NIHJ
Text: as §1

S. flexneli, 2A 5503 = system: S. flexneli, 2A 5503
Text: as §1

S. aureaus, 870307 = system: S. aureaus, 870307
Text: as §1

Ser. marcescens, 10100 = system: Ser. marcescens, 10100
Text: as §1

[2] = system: Str. faecalis, ATCC-19433
Text: as §1

Pr. mirabilis, IFO-3849 = system: Pr. mirabilis, IFO-3849
Text: as §1

[3] = Pseudomonas aeruginosa, read-out: MIC

Row | Structure (SMILES) | MIC (Pr. vulgaris, 08601) | MIC (S. aureus, 209P) | MIC (Str. pyrogenes, G-36) | MIC [1] | MIC (Ps. aeruginosa, 32104) | MIC (S. epidermidis, 56500) | MIC (Ps. aeruginosa, 32121) | MIC (E. coli, NIHJ) | MIC (S. flexneli, 2A 5503; S. flexneli, 2A 5503) | MIC (S. aureaus, 870307) | MIC (Ser. marcescens, 10100) | MIC [2] | MIC (Pr. mirabilis, IFO-3849) | further results
1 | Cc1c(N2CC[C@H](CNC3CC3)C2)c(F)c(N)c2c(=O)c(C(=O)O)cn([C@@H]3C[C@@H]3F)c12.Cl [Example 3, 5-Amino-7-[(3R)-N-cyclopropylaminomethyl-1-pyrrolidinyl]-6-fluoro-1-[(1R,2S)-2-fluorocyclopropyl]-1,4-dihydro-8-methyl-4-oxoquinoline-3-carboxylic Acid Hydrochloride] | 0.05 µg/mL | ≤ 0.003 µg/mL | 0.013 µg/mL | 0.10 µg/mL | 0.39 µg/mL | 0.006 µg/mL | 0.20 µg/mL | 0.006 µg/mL | 0.006 µg/mL | 0.025 µg/mL | 0.20 µg/mL | 0.05 µg/mL | 0.10 µg/mL | –
2 | Cc1c(N2CC[C@H](CNC3CC3)C2)c(F)cc2c(=O)c(C(=O)O)cn([C@@H]3C[C@@H]3F)c12 [Example 1, 7-[3-(R)-Cyclopropylaminomethyl-1-pyrrolidinyl]-6-fluoro-1-[(1R,2S)-2-fluorocyclopropyl]-1,4-dihydro-8-methyl-4-oxoquinoline-3-carboxylic Acid] | – | – | – | – | – | – | – | – | – | – | – | – | – | MIC (Pr. vulgaris, 08601; Proteus vulgaris, read-out: MIC): 0.006 µg/mL (≈ 0.0144 µM); MIC (S. aureus, 209P; Staphylococcus aureus, read-out: MIC): ≤ 0.003 µg/mL; MIC (Str. pyrogenes, G-36; read-out: MIC): 0.013 µg/mL (≈ 0.0311 µM); MIC ([1]; Stenotrophomonas maltophilia, IID1275, read-out: MIC): 0.05 µg/mL (≈ 0.12 µM); MIC (Ps. aeruginosa, 32104; [3]): 0.2 µg/mL (≈ 0.479 µM); MIC (S. epidermidis, 56500; Staphylococcus epidermidis, read-out: MIC): 0.013 µg/mL (≈ 0.0311 µM); MIC (Ps. aeruginosa, 32121; [3]): 0.1 µg/mL (≈ 0.24 µM); MIC (E. coli, NIHJ; Escherichia coli, read-out: MIC): ≤ 0.003 µg/mL; MIC (S. flexneli, 2A 5503): 0.006 µg/mL (≈ 0.0144 µM); MIC (S. aureaus, 870307; read-out: MIC): 0.025 µg/mL (≈ 0.0599 µM); MIC (Ser. marcescens, 10100; Serratia marcescens, read-out: MIC): 0.1 µg/mL (≈ 0.24 µM); MIC ([2]; Enterococcus faecalis, ATCC19433, read-out: MIC): 0.025 µg/mL (≈ 0.0599 µM); MIC (Pr. mirabilis, IFO-3849; Proteus mirabilis, IFO3849, read-out: MIC): 0.025 µg/mL (≈ 0.0599 µM)
3 | COc1c(N2CC[C@H](CNC3CC3)C2)c(F)c(N)c2c(=O)c(C(=O)O)cn([C@@H]3C[C@@H]3F)c12 [Example 2, 5-Amino-7-[3-(R)-(N-cyclopropylaminomethyl)-1-pyrrolidinyl]-6-fluoro-1-[(1R,2S)-2-fluorocyclopropyl]-1,4-dihydro-8-methoxy-4-oxocquinoline-3-carboxylic Acid] | 0.10 µg/mL (≈ 0.223 µM) | ≤ 0.003 µg/mL | 0.025 µg/mL (≈ 0.0557 µM) | 0.20 µg/mL (≈ 0.446 µM) | 0.78 µg/mL (≈ 1.74 µM) | 0.013 µg/mL (≈ 0.029 µM) | 0.78 µg/mL (≈ 1.74 µM) | 0.006 µg/mL (≈ 0.0134 µM) | 0.013 µg/mL (≈ 0.029 µM) | 0.05 µg/mL (≈ 0.111 µM) | 0.39 µg/mL (≈ 0.87 µM) | 0.10 µg/mL (≈ 0.223 µM) | 0.20 µg/mL (≈ 0.446 µM) | –
